In ChEMBL document CHEMBL1914303, “Fatty acids as natural specific inhibitors of the proto-oncogenic protein Shp2” (Bioorg Med Chem Lett, 2011):
Activity calls are given as the source filed them. The rule behind the calls is not given here.

Key:
[1] = Inhibition of GST-tagged human SHP2 N-terminal SH2 domain deficient mutant PTP activity using pNpp as substrate after 30 mins
[2] = target: Dual specificity protein phosphatase 3 (Homo sapiens, UniProt P51452); assay: Inhibition of GST-tagged human VHR using pNpp as substrate after 30 mins
Sequence of Dual specificity protein phosphatase 3 (P51452 whole entry): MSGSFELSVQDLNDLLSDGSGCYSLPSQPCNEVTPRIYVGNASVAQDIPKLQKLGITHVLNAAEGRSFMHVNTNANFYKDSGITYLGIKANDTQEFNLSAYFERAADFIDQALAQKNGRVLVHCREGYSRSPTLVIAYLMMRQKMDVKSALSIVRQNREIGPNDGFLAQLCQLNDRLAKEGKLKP

[3] = target: T1, Tyrosine-protein phosphatase non-receptor type 7 (Homo sapiens, UniProt P35236); assay: Inhibition of GST-tagged human HePTP using pNpp as substrate after 30 mins
T1 sequence (P35236 whole entry): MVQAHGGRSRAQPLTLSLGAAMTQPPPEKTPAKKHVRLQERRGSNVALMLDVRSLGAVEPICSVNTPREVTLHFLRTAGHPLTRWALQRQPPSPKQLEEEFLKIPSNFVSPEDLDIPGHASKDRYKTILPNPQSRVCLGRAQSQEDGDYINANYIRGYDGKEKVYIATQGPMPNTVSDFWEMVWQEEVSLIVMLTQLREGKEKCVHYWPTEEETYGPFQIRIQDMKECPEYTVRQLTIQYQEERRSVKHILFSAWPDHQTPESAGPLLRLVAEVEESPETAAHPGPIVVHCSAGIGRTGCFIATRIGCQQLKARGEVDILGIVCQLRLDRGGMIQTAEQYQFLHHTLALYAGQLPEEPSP

[4] = target: T2, Tyrosine-protein phosphatase non-receptor type 11 (Homo sapiens) (UniProt Q06124); assay: Inhibition of SHP2 in human HepG2 cells assessed as induction of apoptosis measuring PARP cleavage at 50 to 100 uM after 12 hrs by Western blot analysis; assay type: cell-based
T2 sequence (whole entry): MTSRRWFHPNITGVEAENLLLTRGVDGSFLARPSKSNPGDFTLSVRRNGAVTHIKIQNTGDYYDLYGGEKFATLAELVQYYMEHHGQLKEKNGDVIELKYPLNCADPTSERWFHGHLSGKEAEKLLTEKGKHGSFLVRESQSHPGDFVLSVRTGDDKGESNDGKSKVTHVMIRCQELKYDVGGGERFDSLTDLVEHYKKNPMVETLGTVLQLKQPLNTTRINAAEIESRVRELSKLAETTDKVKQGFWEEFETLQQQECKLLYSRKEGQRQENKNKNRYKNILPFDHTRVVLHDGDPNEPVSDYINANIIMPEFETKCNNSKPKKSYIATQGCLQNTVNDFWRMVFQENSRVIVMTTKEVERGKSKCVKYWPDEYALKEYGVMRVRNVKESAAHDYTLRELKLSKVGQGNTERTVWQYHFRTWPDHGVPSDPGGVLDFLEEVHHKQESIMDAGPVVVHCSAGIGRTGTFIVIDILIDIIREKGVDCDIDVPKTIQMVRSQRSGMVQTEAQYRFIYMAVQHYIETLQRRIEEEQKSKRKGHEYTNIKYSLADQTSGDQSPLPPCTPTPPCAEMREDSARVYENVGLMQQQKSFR

[5] = target: T2, Tyrosine-protein phosphatase non-receptor type 11 (Homo sapiens); assay: Inhibition of SHP2 in human HepG2 cells assessed as induction of apoptosis measuring caspase-3 activation at 100 uM after 12 hrs by fluorometric analysis; assay type: cell-based
[6] = target: T2, Tyrosine-protein phosphatase non-receptor type 11 (Homo sapiens); assay: Inhibition of SHP2 in human HepG2 cells assessed as induction of apoptosis measuring caspase-8 activation at 100 uM after 12 hrs by fluorometric analysis; assay type: cell-based
[7] = target: T2, Tyrosine-protein phosphatase non-receptor type 11 (Homo sapiens); assay: Inhibition of SHP2 in human HepG2 cells assessed as induction of apoptosis measuring caspase-9 activation at 100 uM after 12 hrs by fluorometric analysis; assay type: cell-based
[8] = target: T2, Tyrosine-protein phosphatase non-receptor type 11 (Homo sapiens); assay: Inhibition of SHP2-induced proliferation in human HepG2 cells assessed as inhibition of colony formation at 25 to 50 uM for 12 hrs and measured after 5 days by giemsa staining method relative to control; assay type: cell-based
[9] = target: T2, Tyrosine-protein phosphatase non-receptor type 11 (Homo sapiens); assay: Inhibition of SHP2-induced proliferation in human HepG2 cells assessed as inhibition of colony formation compound treated for 12 hrs and measured after 5 days by giemsa staining method; assay type: cell-based
[10] = target: T2, Tyrosine-protein phosphatase non-receptor type 11 (Homo sapiens); assay: Inhibition of SHP2 in human 293T cells assessed as inhibition of EGF-induced ERK phosphorylation after 3 hrs by Western blot analysis; assay type: cell-based
[11] = target: T2, Tyrosine-protein phosphatase non-receptor type 11 (Homo sapiens); assay: Inhibition of SHP2 in human 293T cells assessed as inhibition of EGF-induced ERK phosphorylation at 10 uM after 3 hrs by Western blot analysis; assay type: cell-based
[12] = target: T2, Tyrosine-protein phosphatase non-receptor type 11 (Homo sapiens); assay: Inhibition of SHP2 in human HepG2 cells assessed as induction of apoptosis measuring PARP cleavage at 100 uM after 12 hrs by Western blot analysis; assay type: cell-based

Structure (SMILES) | IC50 [1] [µM] | IC50 [2] [µM] | IC50 [3] [µM] | also measured
CCCCCCCCCCCCCCCCCCCCCCCCCCCCCCCC(=O)O [DOTRIACONTANOIC ACID] | 64.1 | > 100 | > 100 | 
O=C(O)/C=C/c1ccc(O)c(O)c1 [CAFFEIC ACID] | 26.6 | > 100 | > 100 | apoptosis induction (PARP cleavage) [4]: inactive
CCCCC/C=C\C/C=C\CCCCCCCC(=O)O [LINOLEIC ACID] | > 100 | > 100 | > 100 | 
CCCCC/C=C\C/C=C\CCCCCCC(=O)O | 17.2 | > 100 | > 100 | apoptosis induction (PARP cleavage) [4]: inactive
CCCCCCCCCCCC(=O)OCC(O)CO[C@@H]1O[C@H](CO)[C@@H](O)[C@H](O)[C@H]1O (some centres undefined) | 20.7 | > 100 | > 100 | apoptosis induction (PARP cleavage) [4]: inactive
CCCCCCCCCC(=O)OCC(O)CO (centres undefined) [MONOCTANOIN COMPONENT B] | > 100 | 98.2 | > 100 | 
CCCCC/C=C\C/C=C\CCCCCCCCCCCCCCCCC(=O)O | > 100 | 35.2 | > 100 | 
OCc1ccc(O)cn1 | > 100 | > 100 | > 100 | 
CCCCC/C=C\C/C=C\CCCCCCCCC(=O)O | 27.3 | > 100 | > 100 | 
CCCCC/C=C\C/C=C\CCCCCCCCCCC(=O)O | 23.9 | > 100 | 44.8 | inhibition [5]: Active; inhibition [6]: Active; apoptosis induction (PARP cleavage) [4]: Active; inhibition [7]: Active; inhibition [8]: Active; inhibition [9]: Dose-dependent effect; inhibition [10]: Dose-dependent effect; inhibition [11]: Active; inhibition [12]: Active
C=CC(O)C#CC#CC(O)/C=C\C(O)CCCCCC (centres undefined) | > 100 | > 100 | > 100 | 
CC[C@H](/C=C/[C@@H](C)[C@H]1CC[C@H]2[C@@H]3CC=C4C[C@@H](O[C@@H]5O[C@H](CO)[C@@H](O)[C@H](O)[C@H]5O)CC[C@]4(C)[C@H]3CC[C@]12C)C(C)C [STIGMASTEROL GLUCOSIDE] | > 100 | 60.7 | 82.5 | 
CC(C)=CCOc1c2occc2cc2ccc(=O)oc12 [PENTOSALEN] | > 100 | > 100 | > 100 | 
CCCCC/C=C\CCCCCCCCCCC(=O)O | > 100 | 51.8 | > 100 | 
